In US4678666A, “Topical anti-inflammatory compositions” (Pfizer Inc., priority 1982, dated 1987):
“Also recorded” adds a separate entry of the source. Read-outs that look alike come from different tables or passages of the source.

Assays:
[1] = words, background; cited from earlier work
[2] = Solubility of Piroxicam with solubilizers; assay type: physicochemical
Text: This invention employs a solubilizing agent to dissolve piroxicam in bases for formulation; the piroxicam-solubilizing agent is selected from the class of alkanolamines. […] The monoalkanolamines have from one to four carbon atoms and include methanolamine, ethanolamine, propanolamine and butanolamine. The dialkanolamines have from two to eight carbon atoms and include dimethanolamine, diethanolamine, dipropanolamine and dibutanolamine. The trialkanolamines have from three to twelve carbon atoms and include trimethanolamine, triethanolamine, tripropanolamine and tributanolamine.

[3] = tested on: carragenin-induced foot edema; assay: Carragenin-induced rat foot edema test; assay type: in vivo; settings: oral administration, 1 mg./kg.
Protocol: The anti-inflammatory activity of the compositions of this invention was determined using the standard carragenin-induced rat foot edema test. [C. A. Winter et al., Proceedings of the Society for Experimental Biology and Medicine, Vol. 111, p. 544 (1962)]. Piroxicam ointment (1%), prepared according to Example 10, was administered topically at a dose level of 100 mg. per rat. The results obtained are presented in the table below (Table 6) in terms of the percent inhibition of edema formation, as compared to the non-drug treated control and the oral administration of piroxicam (1 mg./kg.): […]

[4] = At a higher pH than 9.0; cited from earlier work
[5] = cited from earlier work

SMILES | Solubility relative to piroxicam [1] | Solubility of Piroxicam ([2]; Ammonia 10%, solvent: water) | Solubility of Piroxicam ([2]; Control (none), no solubilizer, solvent: water) | Solubility of Piroxicam ([2]; Di-isopropanolamine 10%, solvent: water) | Solubility of Piroxicam ([2]; Di-isopropyl adipate 10%, solvent: 1:1 water-ethanol) | Solubility of Piroxicam ([2]; Diethanolamine 10%, solvent: water) | Solubility of Piroxicam ([2]; Diethyl sebacate 10%, solvent: 1:1 water-ethanol) | Solubility of Piroxicam ([2]; Ethanolamine 10%, solvent: water) | Solubility of Piroxicam ([2]; Isopropyl myristate 10%, solvent: 1:1 water-ethanol) | Solubility of Piroxicam ([2]; N-Ethyl-o-crotonotoluidide 10%, solvent: 1:1 water-ethanol) | % Inhibition of edema [3] | Liposolubility [1] | Solubility in water [1] | Chemical stability [4] | Absorption through skin ([5]; compounded in suspension with conventional bases for ointment or cream) | Absorption through skin ([5]; tincture, dissolved in an alcoholic solvent such as ethanol)
CN1C(C(=O)Nc2ccccn2)=C(O)c2ccccc2S1(=O)=O [hydrate] | less soluble than piroxicam itself |  |  |  |  |  |  |  |  |  |  |  |  |  |  | 
CN1C(C(=O)Nc2ccccn2)=C(O)c2ccccc2S1(=O)=O [Piroxicam, N-(2-pyridyl)-2-methyl-4-hydroxy-2H-1,2-benzothiazine-3-carboxamide 1,1-dioxide] |  | 60.0 mg/g | 0.01 mg/g | 195 mg/g | 1.2 mg/g | 204 mg/g | 2.0 mg/g | 392 mg/g | 0.4 mg/g | 1.8 mg/g | 39.6% | not liposoluble | sparingly soluble in water; also recorded: sparingly soluble in water or any other solvent | chemically unstable and may even decompose or deteriorate in quality | poorly absorbed through skin | will not be absorbed through the skin
